The results in this text go back to patent US9642831B2, “Substituted chromanes and method of use” (AbbVie S.á.r.l., priority 2014, dated 2017).

The target in this test is F508delCFTR (Homo sapiens, UniProt P13569, DEL508-508). As to the kind of experiment: Cell Surface Expression-Horse Radish Peroxidase (CSE-HRP) assay. Format: cell-based. Further details: expressed in transfected cells; host or cells: CFBE41o- human lung derived epithelial cell line, doxycycline-inducible. Conditions: CFBE4lo-F508delCFTR-HRP cells; for EC50: 18-24 hours at 33° C., 8-point curve, highest concentration 20 μM, luminescence readout. In short, it runs like this:
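Following 18-24 h compound exposure at 33° C. Expression was doxycycline-induced beforehand. % activity versus DMSO and a 3 μM corrector control gave maximum activity and EC50 from a variable-Hill sigmoidal fit.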

The mark [1] stands for this setting: maximum % activity at any tested concentration, normalized to on-plate positive control (3 μM Example 1).

F508delCFTR, sequence (P13569 with tags, fused parts or gaps DEL508-508): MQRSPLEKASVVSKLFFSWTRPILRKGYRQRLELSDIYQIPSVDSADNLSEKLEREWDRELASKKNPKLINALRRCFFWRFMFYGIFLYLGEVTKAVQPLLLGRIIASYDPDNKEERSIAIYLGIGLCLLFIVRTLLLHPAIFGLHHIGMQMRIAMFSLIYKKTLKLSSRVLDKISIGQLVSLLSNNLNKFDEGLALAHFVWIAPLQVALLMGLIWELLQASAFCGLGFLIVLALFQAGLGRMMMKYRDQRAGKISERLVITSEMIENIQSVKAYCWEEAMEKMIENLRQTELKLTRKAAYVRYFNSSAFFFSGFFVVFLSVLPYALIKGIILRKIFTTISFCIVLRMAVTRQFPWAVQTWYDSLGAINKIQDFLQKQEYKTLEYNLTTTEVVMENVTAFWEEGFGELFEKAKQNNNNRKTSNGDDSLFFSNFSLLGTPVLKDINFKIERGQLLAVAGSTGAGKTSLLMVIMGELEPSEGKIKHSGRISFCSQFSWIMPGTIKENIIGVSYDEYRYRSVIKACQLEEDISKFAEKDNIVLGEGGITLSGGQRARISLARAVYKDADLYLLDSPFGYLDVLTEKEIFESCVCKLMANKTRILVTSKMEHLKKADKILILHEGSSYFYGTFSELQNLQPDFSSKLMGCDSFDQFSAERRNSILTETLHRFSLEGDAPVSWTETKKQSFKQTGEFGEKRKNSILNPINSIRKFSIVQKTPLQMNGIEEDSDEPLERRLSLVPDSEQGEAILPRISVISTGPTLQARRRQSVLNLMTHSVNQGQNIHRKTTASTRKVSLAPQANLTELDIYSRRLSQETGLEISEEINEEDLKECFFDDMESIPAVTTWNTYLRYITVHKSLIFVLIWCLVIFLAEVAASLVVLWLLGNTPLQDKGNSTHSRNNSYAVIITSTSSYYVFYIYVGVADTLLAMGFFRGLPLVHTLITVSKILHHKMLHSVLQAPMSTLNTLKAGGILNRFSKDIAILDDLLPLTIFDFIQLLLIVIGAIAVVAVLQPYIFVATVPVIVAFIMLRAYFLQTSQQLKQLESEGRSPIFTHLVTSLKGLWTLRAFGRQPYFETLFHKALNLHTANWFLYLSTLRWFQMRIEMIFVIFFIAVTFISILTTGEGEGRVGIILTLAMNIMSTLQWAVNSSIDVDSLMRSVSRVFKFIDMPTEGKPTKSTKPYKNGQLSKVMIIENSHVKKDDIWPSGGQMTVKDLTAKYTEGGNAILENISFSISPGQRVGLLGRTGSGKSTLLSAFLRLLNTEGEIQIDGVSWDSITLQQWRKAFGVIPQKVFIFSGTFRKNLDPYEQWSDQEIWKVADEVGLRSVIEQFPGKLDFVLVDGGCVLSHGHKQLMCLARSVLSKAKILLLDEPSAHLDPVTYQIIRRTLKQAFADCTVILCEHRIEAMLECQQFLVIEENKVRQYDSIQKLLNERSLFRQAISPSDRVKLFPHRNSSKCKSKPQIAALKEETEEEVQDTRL

For orientation: EC50 means the concentration that produces a half-maximal response. A lower EC50 goes with a more potent agent. What is called Emax is the maximal effect, on the per cent scale that the assay sets. For the compound `COC(=O)c1cccc([C@H]2C[C@@H](NC(=O)C3(c4ccc5c(c4)OC(F)(F)O5)CC3)c3cc(OC)ccc3O2)c1` [Example 21, methyl 3-[(2R,4R)-4-({[1-(2,2-difluoro-1,3-benzodioxol-5-yl)cyclopropyl]carbonyl}amino)-6-methoxy-3,4-dihydro-2H-chromen-2-yl]benzoate], the half-maximal effective concentration (EC50) is 800 nM. Under setting [1], this compound displayed an Emax of 142%.
`O=C(O)c1cnc(C2CC(NC(=O)C3(c4ccc5c(c4)OC(F)(F)O5)CC3)c3ccccc3O2)s1` (single isomer, unassigned) [Example 136]: the EC50 was 3360 nM. Besides, the “Maximum % activity (%)” value under setting [1] is 90%.
The compound `COc1ccc2c(c1)O[C@@H](C(=O)N1CCC(F)(F)CC1)C[C@@H]2NC(=O)C1(c2ccc3c(c2)OC(F)(F)O3)CC1` (racemic) [Example 193, rac-1-(2,2-difluoro-1,3-benzodioxol-5-yl)-N-{(2R,4S)-2-[(4,4-difluoropiperidin-1-yl)carbonyl]-7-methoxy-3,4-dihydro-2H-chromen-4-yl}cyclopropanecarboxamide] came in with an EC50 of 470 nM. The compound further gave an Emax under setting [1] of 68%.
Consider `COC(=O)c1cccc([C@H]2C[C@H](NC(=O)C3(c4ccc5c(c4)OC(F)(F)O5)CC3)c3ccc(C)cc3O2)c1` [Example 17, methyl 3-[(2R,4S)-4-({[1-(2,2-difluoro-1,3-benzodioxol-5-yl)cyclopropyl]carbonyl}amino)-7-methyl-3,4-dihydro-2H-chromen-2-yl]benzoate], for which it took 2640 nM to reach a half-maximal effect (EC50). This compound yielded an Emax under setting [1] of 78%.
For the compound `COc1ccc2c(c1)OC(C1CN(S(C)(=O)=O)C1)CC2NC(=O)C1(c2ccc3c(c2)OC(F)(F)O3)CC1` (mixture of isomers) [Example 117, 1-(2,2-difluoro-1,3-benzodioxol-5-yl)-N-{7-methoxy-2-[1-(methylsulfonyl)azetidin-3-yl]-3,4-dihydro-2H-chromen-4-yl}cyclopropanecarboxamide], the midpoint of the response, the EC50, lay at 6010 nM. The same compound returned an Emax under setting [1] of 82%.
In the same order, the values of `O=C(NC1CC(c2ccc(C(F)(F)F)cc2)Oc2ccccc21)C1(c2ccc3c(c2)OC(F)(F)O3)CC1` (centres unmarked) [Example 64, 1-(2,2-difluoro-1,3-benzodioxol-5-yl)-N-{2-[4-(trifluoromethyl)phenyl]-3,4-dihydro-2H-chromen-4-yl}cyclopropanecarboxamide] are 1610 nM and 78%.
`COc1ccc2c(c1)O[C@@H](C(=O)NCC(C)(C)O)C[C@@H]2NC(=O)C1(c2ccc3c(c2)OC(F)(F)O3)CC1` (racemic) [Example 188, rac-(2R,4S)-4-({[1-(2,2-difluoro-1,3-benzodioxol-5-yl)cyclopropyl]carbonyl}amino)-N-(2-hydroxy-2-methylpropyl)-7-methoxy-3,4-dihydro-2H-chromene-2-carboxamide] gave an EC50 of 4650 nM. Under setting [1], this compound displayed an Emax of 43%.
For `CC(C)(C)OC(=O)N1CCC2(CC1)CC(NC(=O)C1(c3ccc4c(c3)OC(F)(F)O4)CC1)c1ccc(F)cc1O2` (centres unmarked) [Example 92, tert-butyl 4-({[1-(2,2-difluoro-1,3-benzodioxol-5-yl)cyclopropyl]carbonyl}amino)-7-fluoro-3,4-dihydro-1′H-spiro[chromene-2,4′-piperidine]-1′-carboxylate], the EC50 was 2570 nM. In addition, the Emax under setting [1] amounted to 71%.
With `CCOC(=O)c1csc([C@@H]2C[C@H](NC(=O)C3(c4ccc5c(c4)OC(F)(F)O5)CC3)c3ccc(OC)cc3O2)n1` (stereo in doubt) [Example 157, ethyl rel-2-[(2S,4S)-4-({[1-(2,2-difluoro-1,3-benzodioxol-5-yl)cyclopropyl]carbonyl}amino)-7-methoxy-3,4-dihydro-2H-chromen-2-yl]-1,3-thiazole-4-carboxylate], it took 1520 nM to reach a half-maximal effect (EC50). Also, the Emax under setting [1] was found to be 77%.
In turn, `COC(=O)c1ccc([C@H]2C[C@@H](NC(=O)C3(c4ccc5c(c4)OC(F)(F)O5)CC3)c3ccc(OC)cc3O2)cc1` [Example 110, methyl 4-[(2R,4R)-4-({[1-(2,2-difluoro-1,3-benzodioxol-5-yl)cyclopropyl]carbonyl}amino)-7-methoxy-3,4-dihydro-2H-chromen-2-yl]benzoate] showed an EC50 of 280 nM. This compound showed an Emax under setting [1] of 115%.
Taken in the same sequence, the figures for `COc1ccc2c(c1)O[C@@H](C(=O)NC(C)(C)CO)C[C@H]2NC(=O)C1(c2ccc3c(c2)OC(F)(F)O3)CC1` (racemic) [Example 170, rac-(2R,4R)-4-({[1-(2,2-difluoro-1,3-benzodioxol-5-yl)cyclopropyl]carbonyl}amino)-N-(1-hydroxy-2-methylpropan-2-yl)-7-methoxy-3,4-dihydro-2H-chromene-2-carboxamide] were 1550 nM and 65%.
Taken in the same sequence, the figures for `Cc1ccc2c(c1)O[C@@H](c1cccc(C(=O)NCC3(O)CCC3)c1)C[C@H]2NC(=O)C1(c2ccc3c(c2)OC(F)(F)O3)CC1` [Example 54, 3-[(2R,4R)-4-({[1-(2,2-difluoro-1,3-benzodioxol-5-yl)cyclopropyl]carbonyl}amino)-7-methyl-3,4-dihydro-2H-chromen-2-yl]-N-[(1-hydroxycyclobutyl)methyl]benzamide] were 860 nM and 92%.
In the same order, the values of `Cc1ccc2c(c1)O[C@@H](c1cccc(C(=O)NC[C@@H](O)CO)c1)C[C@H]2NC(=O)C1(c2ccc3c(c2)OC(F)(F)O3)CC1` [Example 48, 3-[(2R,4R)-4-({[1-(2,2-difluoro-1,3-benzodioxol-5-yl)cyclopropyl]carbonyl}amino)-7-methyl-3,4-dihydro-2H-chromen-2-yl]-N-[(2R)-2,3-dihydroxypropyl]benzamide] are 1000 nM and 104%.
Turning to `COc1ccc2c(c1)O[C@@H](C(=O)NC1(C(F)(F)F)COC1)C[C@@H]2NC(=O)C1(c2ccc3c(c2)OC(F)(F)O3)CC1` (racemic) [Example 192, rac-(2R,4S)-4-({[1-(2,2-difluoro-1,3-benzodioxol-5-yl)cyclopropyl]carbonyl}amino)-7-methoxy-N-[3-(trifluoromethyl)oxetan-3-yl]-3,4-dihydro-2H-chromene-2-carboxamide], it took 4400 nM to reach a half-maximal effect (EC50). The maximal response (Emax) under setting [1] came to 29%.
`COC(=O)c1cccc(C2CC(NC(=O)C3(c4ccc5c(c4)OC(F)(F)O5)CC3)c3ccc(OC)nc3O2)c1` (mixture of isomers) [Example 37, methyl 3-[4-({[1-(2,2-difluoro-1,3-benzodioxol-5-yl)cyclopropyl]carbonyl}amino)-7-methoxy-3,4-dihydro-2H-pyrano[2,3-b]pyridin-2-yl]benzoate] came in with an EC50 of 3050 nM. This compound also had an Emax under setting [1] of 88%.
`COC(=O)c1cccc([C@H]2C[C@@H](NC(=O)C3(c4ccc5c(c4)OC(F)(F)O5)CC3)c3ccc(Cl)nc3O2)c1` (racemic) [Example 112, methyl rac-3-[(2R,4R)-7-chloro-4-({[1-(2,2-difluoro-1,3-benzodioxol-5-yl)cyclopropyl]carbonyl}amino)-3,4-dihydro-2H-pyrano[2,3-b]pyridin-2-yl]benzoate] displayed an EC50 of at least 20000 nM. Under setting [1], the Emax is 5%.
The compound `O=C(O)c1cccc([C@H]2C[C@@H](NC(=O)C3(c4ccc5c(c4)OC(F)(F)O5)CC3)c3ccc(OCCF)cc3O2)c1` [Example 106, 3-[(2R,4R)-4-({[1-(2,2-difluoro-1,3-benzodioxol-5-yl)cyclopropyl]carbonyl}amino)-7-(2-fluoroethoxy)-3,4-dihydro-2H-chromen-2-yl]benzoic acid] showed an EC50 of 310 nM. The compound also showed an Emax under setting [1] of 88%.
Turning to `O=C(O)c1cccc([C@H]2C[C@@H](NC(=O)C3(c4ccc5c(c4)OC(F)(F)O5)CC3)c3ccc(Cl)nc3O2)c1` (racemic) [Example 114, rac-3-[(2R,4R)-7-chloro-4-({[1-(2,2-difluoro-1,3-benzodioxol-5-yl)cyclopropyl]carbonyl}amino)-3,4-dihydro-2H-pyrano[2,3-b]pyridin-2-yl]benzoic acid], the EC50 was 4760 nM. This compound also displayed an Emax under setting [1] of 61%.
Taken in the same sequence, the figures for `COc1ccc2c(c1)O[C@@H](C(=O)N(C)C1COC1)C[C@@H]2NC(=O)C1(c2ccc3c(c2)OC(F)(F)O3)CC1` (racemic) [Example 195, rac-(2R,4S)-4-({[1-(2,2-difluoro-1,3-benzodioxol-5-yl)cyclopropyl]carbonyl}amino)-7-methoxy-N-methyl-N-(oxetan-3-yl)-3,4-dihydro-2H-chromene-2-carboxamide] were 7530 nM and 37%.
In the same order, the values of `COC(=O)c1cccc([C@H]2C[C@@H](NC(=O)C3(c4ccc5c(c4)OC(F)(F)O5)CC3)c3ccc(OCc4ccccc4)cc3O2)c1` [Example 95, methyl 3-[(2R,4R)-7-(benzyloxy)-4-({[1-(2,2-difluoro-1,3-benzodioxol-5-yl)cyclopropyl]carbonyl}amino)-3,4-dihydro-2H-chromen-2-yl]benzoate] are 920 nM and 98%.
In the case of `COC(=O)c1cccc([C@H]2C[C@@H](NC(=O)C3(c4ccc5c(c4)OC(F)(F)O5)CC3)c3ccc(C)cc3O2)c1` [Example 18, methyl 3-[(2R,4R)-4-({[1-(2,2-difluoro-1,3-benzodioxol-5-yl)cyclopropyl]carbonyl}amino)-7-methyl-3,4-dihydro-2H-chromen-2-yl]benzoate], the EC50 was found to be 350 nM. Further, the Emax under setting [1] came out at 113%.
In turn, `COc1ccc2c(c1)O[C@H](c1ccc(OC)c(OC)c1)C[C@@H]2NC(=O)C1(c2ccc3c(c2)OC(F)(F)O3)CC1` [Example 4, 1-(2,2-difluoro-1,3-benzodioxol-5-yl)-N-[(2S,4S)-2-(3,4-dimethoxyphenyl)-7-methoxy-3,4-dihydro-2H-chromen-4-yl]cyclopropanecarboxamide] came in with an EC50 of 1190 nM. The Emax under setting [1] amounted to 73%.
